For two compounds, Volume and Acid output results are on record in ChEMBL document CHEMBL1121467, “Prostaglandins and congeners. 25. Inhibition of gastric acid secretion. Replacement of the carboxylate moiety of a prostaglandin with a hydroxymethylketo functional group” (1980).

Structures are written as SMILES.

The test system of assay [1] is Canis familiaris. Put plainly: Inhibition of gastric acid secretion (cumulative 75 min) in the dog fistula preparation was measured as total volume, after intragastric administration of 10 ug/kg. The assay is classed as functional, Canis lupus familiaris, Stomach.
The test system of assay [2] is Canis familiaris. Put plainly: Inhibition of gastric acid secretion (cumulative 75 min) in the dog fistula preparation was measured as acid output, after intragastric administration of 10 ug/kg. The assay is classed as functional, Canis lupus familiaris, Stomach.

Take `CCCCC(C)(O)C/C=C/C1[C@H](O)CC(=O)[C@@H]1CCCCCCC(=O)CO` (some centres undefined): the Volume in assay [1] was 59 mL. The compound further yielded an Acid output in assay [2] of 6.9 m equiv [H+] l-1.
For `CCCCC(C)(O)C/C=C/C1[C@H](O)CC(=O)[C@@H]1C/C=C/CCCC(=O)CO` (some centres undefined), in that order: 76 mL and 7.5 m equiv [H+] l-1.
